The text below walks through data of patent US7759385B2, “4-substituted 1-aminocyclohexane compounds for utilization as ORL1-receptor and mu-opiate receptor ligands” (priority 2002, dated 2010).

pKi: −log10 of the molar value.

As a reminder, the pKi is the negative decadic logarithm of the Ki, by convention in mol/L. A low value points to a high Ki.

The test deals with human μ opiate receptor (Homo sapiens, UniProt P35372). As to the kind of experiment: μ opiate receptor binding assay, membrane preparation of CHO-K1 cells, [3H]-naloxone (or DAMGO) displacement. Particulars: radioligand [3H]-naloxone 1 nmole/l; Cheng-Prusoff.
Chain of human μ opiate receptor (P35372 whole entry): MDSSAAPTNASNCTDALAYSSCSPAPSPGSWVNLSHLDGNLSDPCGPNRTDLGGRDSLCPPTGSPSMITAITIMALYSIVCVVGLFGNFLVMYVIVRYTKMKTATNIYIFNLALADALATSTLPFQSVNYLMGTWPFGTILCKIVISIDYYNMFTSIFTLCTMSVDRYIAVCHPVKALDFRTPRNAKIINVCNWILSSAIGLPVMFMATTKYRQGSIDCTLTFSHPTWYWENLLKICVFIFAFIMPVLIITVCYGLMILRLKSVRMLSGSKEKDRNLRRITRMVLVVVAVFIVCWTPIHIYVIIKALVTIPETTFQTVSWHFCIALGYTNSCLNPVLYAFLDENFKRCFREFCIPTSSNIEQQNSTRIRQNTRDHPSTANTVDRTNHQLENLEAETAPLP

Turning to `CN(C)C1(c2ccccc2)CCC(NC(=O)N2CCC(C3C=Nc4ccc(F)cc43)CC2)CC1` (stereo not shown) [Example 34, 4-(5-fluoro-1H-indol-3-yl)piperidine-1-carboxylic acid-(4-dimethylamino-4-phenylcyclohexyl)-amide], the pKi is 6.92.
